Consider 14 compounds from patent publication US12448369B2 (Edgewise Therapeutics, Inc., priority 2023, dated 2025).

Experiment [1] deals with Rabbit Psoas myofibrils (skeletal myosin ATPase). The experiment is described as follows: Myofibril ATPase assay, rabbit psoas (skeletal) myofibrils. The format is biochemical. To be noted: rabbit psoas myofibrils. The gist of the method:
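Readout: A340 decline from NADH oxidation, PK/LDH-coupled to ADP release; kinetic reads over 75 min. Buffer: pCa (PIPES, CaCl2, EGTA), pH 7.0. Linear-regression slopes vs vehicle, 4PL fit; reported as concentration giving 75% (Y75) or 125% (Y125) of vehicle activity.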

For experiment [2], the system named is Porcine atria myofibrils (atrial myosin ATPase). The experiment in a line: Myofibril ATPase assay, porcine atria myofibrils. The format is biochemical. Conditions: porcine atria myofibrils. In short, it runs like this:
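Coupled PK-LDH readout, NADH loss at 340 nm, kinetic 75 min. Porcine atria myofibrils, pCa buffer (PIPES/CaCl2/EGTA, pH 7.0). Slopes (mAU/min) normalized to vehicle = 100%, 4-parameter fit; Y75 or Y125 reported.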

Experiment [3] concerns the target T1, Porcine ventricle myofibrils (ventricular myosin ATPase) (Sus scrofa, UniProt P79293).
T1 construct: Myofibrils from porcine cardiac muscle was isolated from the left ventricle of Yucatan minipigs; tissue Exemplar Genetics; host or cells: left ventricle of Yucatan minipigs, myofibrils prepared in house
The experiment in a line: Myofibril ATPase assay, porcine ventricle myofibrils. The format is biochemical, porcine (Yucatan minipigs). To be noted: porcine ventricle myofibrils. The gist of the method:
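Test compounds acted on myofibrils isolated from the left ventricle of Yucatan minipigs. ADP formation was coupled via pyruvate kinase/lactate dehydrogenase to NADH oxidation, monitored kinetically at 340 nm over 75 min. Rates relative to vehicle were fitted with a 4-parameter logistic model, reported as Y75 (25% inhibition) or Y125 (activation) concentrations.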

Setting [4] is: Y75 value (75% activity relative to no compound).

T1 sequence (P79293 whole entry): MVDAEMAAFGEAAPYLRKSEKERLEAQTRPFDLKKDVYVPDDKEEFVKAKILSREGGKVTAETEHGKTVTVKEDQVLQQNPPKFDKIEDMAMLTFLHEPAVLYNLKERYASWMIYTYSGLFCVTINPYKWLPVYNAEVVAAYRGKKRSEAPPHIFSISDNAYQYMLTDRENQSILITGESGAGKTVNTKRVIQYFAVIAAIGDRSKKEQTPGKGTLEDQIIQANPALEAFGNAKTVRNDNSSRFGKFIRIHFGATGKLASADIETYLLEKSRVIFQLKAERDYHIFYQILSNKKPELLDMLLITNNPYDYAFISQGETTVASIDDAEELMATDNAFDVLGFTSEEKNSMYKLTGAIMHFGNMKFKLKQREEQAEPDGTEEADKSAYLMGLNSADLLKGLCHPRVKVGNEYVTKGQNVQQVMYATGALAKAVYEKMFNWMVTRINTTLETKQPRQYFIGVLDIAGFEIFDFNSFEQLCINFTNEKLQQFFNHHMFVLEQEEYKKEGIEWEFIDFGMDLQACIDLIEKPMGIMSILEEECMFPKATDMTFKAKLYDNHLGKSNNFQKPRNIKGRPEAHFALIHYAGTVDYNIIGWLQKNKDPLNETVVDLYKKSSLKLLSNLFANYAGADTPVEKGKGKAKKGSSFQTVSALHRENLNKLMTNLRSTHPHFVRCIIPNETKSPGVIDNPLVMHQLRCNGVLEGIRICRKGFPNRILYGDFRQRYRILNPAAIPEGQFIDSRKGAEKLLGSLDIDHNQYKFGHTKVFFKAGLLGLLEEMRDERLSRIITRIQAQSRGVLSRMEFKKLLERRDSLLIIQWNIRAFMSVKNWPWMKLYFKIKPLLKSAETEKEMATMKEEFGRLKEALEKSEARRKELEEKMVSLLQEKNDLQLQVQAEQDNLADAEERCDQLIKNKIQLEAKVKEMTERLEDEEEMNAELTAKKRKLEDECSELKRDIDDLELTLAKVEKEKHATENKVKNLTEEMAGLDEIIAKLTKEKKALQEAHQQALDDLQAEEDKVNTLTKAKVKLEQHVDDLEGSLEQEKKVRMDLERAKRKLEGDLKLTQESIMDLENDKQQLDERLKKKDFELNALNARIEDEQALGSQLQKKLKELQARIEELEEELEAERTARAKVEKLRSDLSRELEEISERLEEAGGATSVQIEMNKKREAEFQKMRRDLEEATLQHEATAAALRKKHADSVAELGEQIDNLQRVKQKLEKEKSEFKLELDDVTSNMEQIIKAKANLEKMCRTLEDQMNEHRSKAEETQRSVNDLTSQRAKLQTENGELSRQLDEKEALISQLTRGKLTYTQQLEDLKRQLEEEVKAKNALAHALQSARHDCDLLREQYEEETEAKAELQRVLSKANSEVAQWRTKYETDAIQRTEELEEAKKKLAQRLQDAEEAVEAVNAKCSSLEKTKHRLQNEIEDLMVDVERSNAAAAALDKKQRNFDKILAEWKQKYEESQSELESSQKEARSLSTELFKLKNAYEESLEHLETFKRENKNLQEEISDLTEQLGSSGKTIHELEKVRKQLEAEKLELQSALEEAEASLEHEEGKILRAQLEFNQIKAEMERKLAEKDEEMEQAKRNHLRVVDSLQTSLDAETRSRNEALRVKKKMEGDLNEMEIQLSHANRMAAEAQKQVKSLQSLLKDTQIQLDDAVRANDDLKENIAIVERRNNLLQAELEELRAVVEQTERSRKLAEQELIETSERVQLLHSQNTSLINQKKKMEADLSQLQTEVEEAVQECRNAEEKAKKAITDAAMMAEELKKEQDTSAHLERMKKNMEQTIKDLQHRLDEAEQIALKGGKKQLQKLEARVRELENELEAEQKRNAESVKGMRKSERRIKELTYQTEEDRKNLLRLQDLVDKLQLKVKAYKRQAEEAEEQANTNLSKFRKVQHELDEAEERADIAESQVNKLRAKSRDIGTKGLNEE

As for `Cc1c(CC(=O)N[C@H](CO)c2ncccc2F)c(=O)[nH]c2ccnc(C#N)c12` (single isomer, unassigned) [compound 235], the “Skeletal EC25” value in experiment [1] (Y75 value) was 100.00 µM. Moreover, in experiment [2] (setting [4]), the “Atrial EC25” value turned out to be 100.00 µM. Moreover, in experiment [3] (Y75 value), the “Ventricular EC25” value came to 100.00 µM.
For the compound `Cc1c(CC(=O)N[C@H](C)c2ccc(C#N)nn2)c(=O)[nH]c2ccc(F)cc12` [compound 1119], the “Skeletal EC25” value in experiment [1] (Y75 value (no ‡ mark)) came to 0.22 µM. In experiment [2] (Y75 value (no ‡ mark)), the “Atrial EC25” value came out at 0.48 µM. In addition, the “Ventricular EC25” value in experiment [3] (Y75 value (no ‡ mark)) came out at 1.18 µM.
In the same order, the values of `Cc1nc(C#N)ncc1[C@H](C)NC(=O)Cc1c(C)c2cc(F)ccc2[nH]c1=O` [compound 1053] are 0.04 µM, 0.12 µM and 0.22 µM.
`Cc1c(CC(=O)N[C@@H](C)c2ccc(C#N)cc2F)c(=O)[nH]c2ccc(F)c(C(F)(F)F)c12` [compound 38]: the “Skeletal EC25” value in experiment [1] (Y75 value (no ‡ mark)) is 0.02 µM. Moreover, the “Atrial EC25” value in experiment [2] (Y75 value (no ‡ mark)) was 0.03 µM. In addition, the “Ventricular EC25” value in experiment [3] (Y75 value (no ‡ mark)) was determined as 0.06 µM.
On to `Cc1c(CC(=O)N[C@H](C)c2ncc(F)cc2F)c(=O)[nH]c2ccc(C#N)nc12` (single isomer, unassigned) [compound 249], for which, in experiment [1] (Y75 value), the “Skeletal EC25” value worked out at 100.00 µM. Also, the “Atrial EC25” value in experiment [2] (setting [4]) turned out to be 100.00 µM. In addition, the “Ventricular EC25” value in experiment [3] (Y75 value) worked out at 100.00 µM.
For `Cc1c(CC(=O)N[C@@H]2COc3cc(F)cc(F)c32)c(=O)[nH]c2ccnc(C#N)c12` (single isomer, unassigned) [compound 273], in experiment [1] (Y75 value), the “Skeletal EC25” value was determined as 0.97 µM. Moreover, the “Atrial EC25” value in experiment [2] (setting [4]) turned out to be 2.50 µM. For the same compound, the “Ventricular EC25” value in experiment [3] (Y75 value) was 4.08 µM.
In the case of `C[C@H](NC(=O)C(F)(F)c1cc2c(F)c(F)ccc2[nH]c1=O)c1nccc(C#N)n1` (single isomer, unassigned) [compound 2562], the “Skeletal EC25” value in experiment [1] (Y75 value (no ‡ mark)) came out at 0.28 µM. Moreover, in experiment [2] (Y75 value (no ‡ mark)), the “Atrial EC25” value worked out at 0.15 µM. In addition, the “Ventricular EC25” value in experiment [3] (Y75 value (no ‡ mark)) is 0.75 µM.
As to `Cc1nccc2[nH]c(=O)c(CC(=O)N[C@@H](C)c3ccccn3)c(C)c12` (single isomer, unassigned) [compound 325], the “Skeletal EC25” value in experiment [1] (Y75 value) is 1.57 µM. Further, in experiment [2] (setting [4]), the “Atrial EC25” value was found to be 100.00 µM. Further, the “Ventricular EC25” value in experiment [3] (Y75 value) is 100.00 µM.
With `C[C@H](NC(=O)Cc1c(C2CC2)c2cc(F)ccc2[nH]c1=O)c1ccc(C#N)cc1F` [compound 74], the “Skeletal EC25” value in experiment [1] (Y75 value (no ‡ mark)) came to 0.01 µM. The “Atrial EC25” value in experiment [2] (Y75 value (no ‡ mark)) stood at 0.69 µM. In addition, the “Ventricular EC25” value in experiment [3] (Y75 value (no ‡ mark)) came out at 0.46 µM.
As for `Cc1nccc2[nH]c(=O)c(CC(=O)N[C@H](CO)c3ccc(F)cc3F)c(C)c12` [compound 498], in experiment [1] (Y75 value), the “Skeletal EC25” value was found to be 7.2 µM. The “Atrial EC25” value in experiment [2] (setting [4]) was 100 µM. Moreover, the “Ventricular EC25” value in experiment [3] (Y75 value) was found to be 100 µM.
Take `Cc1c(CC(=O)N[C@@H](C)c2ccc(F)cc2F)c(=O)[nH]c2ccnc(NCC(C)C)c12` [compound 277]: the “Skeletal EC25” value in experiment [1] (Y75 value) amounted to 82.10 µM. In addition, the “Atrial EC25” value in experiment [2] (setting [4]) amounted to 100.00 µM. The “Ventricular EC25” value in experiment [3] (Y75 value) worked out at 84.29 µM.
Take `C[C@@H](NC(=O)Cc1c(C2CC2)c2cc(F)ccc2[nH]c1=O)c1ccc(C#N)nn1` (single isomer, unassigned) [compound 2053]: the “Skeletal EC25” value in experiment [1] (Y75 value (no ‡ mark)) was 12.45 µM. Besides, the “Atrial EC25” value in experiment [2] (Y75 value (no ‡ mark)) came to 100.00 µM. For the same compound, the “Ventricular EC25” value in experiment [3] (Y75 value (no ‡ mark)) was found to be 100.00 µM.
As for `Cc1c(CC(=O)N[C@@H](CO)c2ccc(F)cc2F)c(=O)[nH]c2cccc(C#N)c12` (single isomer, unassigned) [compound 90], the “Skeletal EC25” value in experiment [1] (Y75 value (no ‡ mark)) was determined as 1.26 µM. Moreover, the “Atrial EC25” value in experiment [2] (Y75 value (no ‡ mark)) is 23.51 µM. In addition, in experiment [3] (Y75 value (no ‡ mark)), the “Ventricular EC25” value turned out to be 100.00 µM.
Take `C[C@H](NC(=O)[C@H](C)c1c(C(F)(F)F)c2cnccc2[nH]c1=O)c1ccc(F)cc1F` (single isomer, unassigned) [compound 427]: the “Skeletal EC25” value in experiment [1] (Y75 value) was determined as 2.02 µM. Also, the “Atrial EC25” value in experiment [2] (setting [4]) was found to be 2.53 µM. The “Ventricular EC25” value in experiment [3] (Y75 value) is 22.60 µM.
